Source: patent US4340594A, “Fat emulsion containing steroid” (The Green Cross Corporation, priority 1980, dated 1982)

Assays:
dd strain mice = conditions: mouse, in vivo, iv
in vivo = conditions: mouse, iv

Row | SMILES | LD50 (dd strain mice) [mg/kg] | LD50 (in vivo) [mg/kg]
1 | C[C@@H]1C[C@H]2[C@@H]3CCC4=CC(=O)C=C[C@]4(C)[C@@]3(F)[C@@H](O)C[C@]2(C)[C@@]1(O)C(=O)COP(=O)(O)O [dexamethasone phosphate] | 115 | 140
2 | CCCCCCCCCCCCCCCC(=O)OCC(=O)[C@@]1(O)[C@H](C)C[C@H]2[C@@H]3CCC4=CC(=O)C=C[C@]4(C)[C@@]3(F)[C@@H](O)C[C@@]21C [dexamethasone palmitate] | 420 | 580
